Measured values from US20080241081A1, “AMIDE COMPOUND OR SALT THEREOF, AND BIOFILM REMOVER CONTAINING THE SAME” (priority 2006, published 2008).

Experiments:
[1] = tested on: biofilm formed by Pseudomonas aeruginosa (gfp expression PAO1-strain); experiment: Evaluation test for removing biofilms formed by Pseudomonas aeruginosa (flow cell system, fluorescence confocal microscope); type: cell-based; conditions: test liquid 100 μM compound; for state of deposited biofilm observed over time: flow 200 μL per minute, observed after 3, 4, 5, 6, 7 and 10 days, compared with DMSO control test liquid; for biofilm removal effect (conclusion): flow cell system, up to 10 days
Method: Each of the amide compounds (Compound 1a-1, 1a-2, 1b-1 and 1c-1) produced in Production Examples 1 to 4 was evaluated for its biofilm removal effect, using the flow cell system shown in FIG. 1.
A culture medium bottle (1), a peristaltic pump (2), a glass cell (4) and a waste fluid bottle (5) are connected via a silicon tube (6) so that a culture medium (9) is supplied to the glass cell from the culture medium bottle (1) using the peristaltic pump (2). The system includes an air removal section (3) between the peristaltic pump (2) and a turncock (7a), for removing the entrained air. All tools in the flow cell system are sterilized using gamma-rays or an autoclave.
As specifically described later, the effect for removing biofilms is examined in the following manner. Bacteria are cultured in a glass cell (4) to grow a biofilm on the inner wall of the cell, and a test liquid containing one of the amide compounds is applied to the biofilm. Then the condition of the biofilm is observed to evaluate the biofilm-removing effect of the compound using a fluorescence confocal microscope (Leica TCS SP2: product of Leica).
The bacteria was prepared by inserting a pTdk-LVAgfp plasmid into a Pseudomonas aeruginosa PAO1-strain using the electroportion method so that the Pseudomonas aeruginosa PAO1-strain is transformed to express Green Fluorescent Protein (hereinafter referred to as “gfp expression PAO1-strain”) (see Teresa R. et al., Applied and Environmental Microbiology, April 2001, p. 1865-1873).
A 30 mM glucose-containing FAB culture medium was used for preincubation, and a 0.3 mM glucose-containing FAB culture medium was used for main cultivation.
The glucose-containing FAB culture medium was prepared by adding 200 μg/mL of carbenicillin to an aqueous solution containing 30 mM glucose or 0.3 mM glucose, 15 mM ammonium sulfate, 33.7 mM disodium hydrogenphosphate, 22.1 mM dipotassium hydrogenphosphate, 51.7 mM sodium chloride, 0.47 mM magnesium chloride, 0.08 mM calcium chloride and the following 0.1% trace metal solution.
An aqueous solution containing 1.16 mM calcium sulfate dihydrate, 0.72 mM iron sulfate heptahydrate, 0.08 mM manganous sulfate monohydrate, 0.08 mM copper sulfate pentahydrate, 0.07 mM zinc sulfate heptahydrate, 0.04 mM cobalt sulfate heptahydrate, 0.04 mM […], and 0.08 mM boric acid.
A gfp expression PAO1-strain was inoculated in a 30 mM glucose-containing FAB culture medium, and was subjected to shake culture at 37° C. in an isothermal tank overnight. The obtained overnight culture liquid was diluted by a 30 mM glucose-containing FAB culture medium to OD590=0.1. […]

[2] = tested on: biofilm formed by Porphyromonas gingivalis 381-strain; experiment: Evaluation test for removing biofilms formed by periodontitis pathogenic bacteria (flow cell system, optical microscope); type: cell-based; conditions: same experiment as Experiment Example 1, Porphyromonas gingivalis 381-strain, 10 days
Method: The same experiment as in Experiment Example 1 was conducted except that periodontitis pathogenic bacteria Porphyromonas gingivalis 381-strain (clinical bacteria) was used in place of Pseudomonas aeruginosa PAO1-strain. […] The gradual exfoliation of the deposited biofilm from the cell wall, and the flowing flakes of biofilm exfoliation in the cell were also visually observed.

[3] = tested on: autoinducer; conditions: as taught by Patent Document 1 (JP 2006-512290); cited from earlier work

Row | Structure (SMILES) | state of deposited biofilm observed over time [1] | biofilm removal effect (conclusion) [1] | state of biofilm (removal) [2] | autoinducer agonist activity [3]
1 | CCCCCCCCCC(=O)CC(=O)Nc1ccccc1O [Comparative Compound 1, reference compound] | a similar biofilm formation to that of the control test using the control test liquid was observed | – | – | –
2 | CCCCCCCCCC(=O)CC(=O)NN1CCCC1 [Compound 1a-1, N-(pyrrolidin-1-yl)-3-oxododecanoyl amide] | – | effective for removing deposited biofilms | nearly the entire biofilm was removed in 10 days | –
3 | CCCCCCCCCC(=O)CC(=O)NN1CCCCC1 [Compound 1a-2, N-(piperidine-1-yl)-3-oxododecanoyl amide] | gradual disappearance of the deposited biofilm with time was observed | effective for removing deposited biofilms | nearly the entire biofilm was removed in 10 days | –
4 | CCCCCCCCCC(=O)CC(=O)NN1CCCCC1 [drawing 7] | – | – | – | exhibits autoinducer agonist activity
